# According to patent US20210161868A1, “ANTI-INFLAMMATORY THERAPY IN ARRHYTHMOGENIC CARDIOMYOPATHY (ACM)” (Beth Israel Deaconess Medical Center, Inc., priority 2018, published 2021):
# Entries after “also recorded” stand apart in the source; their conditions may differ.
# Tested on: neonatal rat ventricular myocytes (NRVMs) expressing JUP^2157del2
# Assay: In vitro apoptosis assay (TUNEL) in NRVMs expressing mutant plakoglobin
# Type: cell-based
# Settings: transfected NRVMs, 24 hours
# Protocol: Primary cultures were prepared from disaggregated ventricles of 1-day-old Wistar rat pups (Charles River) as previously described.^15 Cell suspensions were pre-plated to reduce fibroblast content, placed in collagen-coated chamber slides at a density of 2.4×10^5 cells/cm^2, and grown for 4 days at 37° C. in M199 medium (GIBCO) (supplemented with penicillin, 20 U/mL; streptomycin, 20 μg/mL; 10% neonatal calf serum and 0.1 mM bromodeoxyuridine) in a humidified atmosphere containing 1% CO2. Epinephrine (0.01 μmol/mL) was added during the first 24 hours of culture. At 24 hours post-seeding, cultures were transfected with an adenoviral construct expressing plakoglobin (JUP) with the 2157del2 mutation, as previously reported.^15 At 24 hours post-transfection, cultures were treated with Bay11-7082 (Sigma, […]) for an additional 24 hours. Transfected cultures treated with vehicle only (DMSO) and non-transfected cultures were used for control purposes.
# Terminal deoxynucleotidyl transferase dUTP nick end labeling (TUNEL) was performed on neonatal rat myocyte cultures according to the manufacturer's protocol (Millipore, S7110). The number of TUNEL-positive nuclei was counted in 5 randomly selected high-power fields in each culture well and expressed as a per cent of total nuclei visualized with DAPI.
smiles,measurement,value
Cc1ccc(S(=O)(=O)/C=C/C#N)cc1 [Bay 11-7082],"myocyte apoptosis, TUNEL labeling",normalization; also recorded: returned to control levels
